Test results as given in patent US20190255042A1, “APPLICATION OF HEDGEHOG PATHWAY INHIBITOR IN TREATING FIBROSIS DISEASES” (IMPACT THERAPEUTICS, INC, priority 2016, published 2019).

Assays:
[1] = tested on: lung fibrosis model in mice induced by bleomycin; experiment: Therapeutic efficacy in lung fibrosis model in mice induced by bleomycin; format: in vivo, C57BL/6 mice; details: n = 10, Mean ± Sem
Method: Experimental Methods: 60 male C57BL/6 mice were randomize into 6 groups: Blank control group (Group 1, n=10), model group (Group 2, BLM, n=10), Compound A 10 mpk group (Group 3, n=10), compound A 20 mpk group (Group 4, n=10), Compound A 20 mpk +BIBF1120 50 mpk (Group 5, n=10), and BIBF1120 50 mpk positive reference group (Group 6, n=10). One week after the mice were acclimated to the environment, 10 mice in the blank control group were given 50 μl of normal saline in the trachea, and other 50 mice were given 50 μl BLM (0.66 mg/kg, 2 ml/kg) in the trachea. After BLM infusion, 50 mice in BLM infusion group were randomly assigned to start treatment on the 5th day, once a day, with a treatment cycle of 20 days. The whole process was 25 days. After the experiment, the lung tissues were fixed in 10% neutral formalin, dehydrated by alcohol gradient, embedded with paraffin, stained by hematoxylin-eosin (H&E) and Masson trichrome staining. And the inflammatory area and degree of fibrosis of the lung tissues in mice were evaluated by APERIO ScanScope. Immunohistochemical staining of lung tissue was performed to quantify α-SMA positive fibroblasts in lung tissue and to calculate the percentage (%) of α-SMA staining in the entire lung stroma.

[2] = tested on: unilateral pulmonary fibrosis model in SD rats; experiment: Therapeutic efficacy in unilateral pulmonary fibrosis model in SD rats (bleomycin, dosing from D8); format: in vivo; design: Evaluation of injury and inflammatory lesions of left lung: Fibrotic lesion edge / Evaluation of injury and inflammatory lesions of left lung: Fibrosis lesion: scale not given here; details: for Expression of Type I collagen (%) / Expression of α-SMA protein (%): left lung immunohistochemistry; for Evaluation of injury and inflammatory lesions of left lung: Fibrosis lesion / Evaluation of injury and inflammatory lesions of left lung: Fibrotic lesion edge: HE score; for Fibrosis area (left pulmonary): Masson trichrome
Method: On the modeling day, rats were anesthetized and exposed to trachea. Bleomycin was injected into left trachea of each group (dosage: 3 mg/kg, volume: 1.0 ml/kg). Oral administration was performed on Day 8 after modeling, once a day. On Day 22, according to the KCI animal euthanasia SOP, animals in each group were given an overdose of sodium barbiturate and sacrificed under intraperitoneal anesthesia, the left lung was taken, the weight and volume of the left lung were measured, then fixed by formalin, the bronchioles were stained with HE, Masson trichrome. The bronchioles, final bronchiole and small pulmonary artery injury and inflammation invasion were evaluated by semi-quantitative score, and pulmonary fibrosis was evaluated by Ashcraft semi-quantitative score. Immunohistochemical staining of α-SMA, Type I collagen (Collagen-I) were performed at the same time, a full scan was performed by Hamamatsu NanoZoomer Digital Pathology (S210), the α-SMA positive area was semiquantitatively calculated from the unit area of the whole sheelt in pulmonary fibrosis foci, and the positive staining area of type-I collagent per unit of area was calculated.

[3] = tested on: unilateral pulmonary fibrosis model in SD rats; experiment: Prophylactic therapeutic efficacy in unilateral pulmonary fibrosis model in SD rats (bleomycin); format: in vivo; design: key to Fibrosis score (Ashcraft): Ashcraft semi-quantitative fibrosis score; Evaluation of injury and inflammatory lesions of left lung: Fibrotic lesion edge / Evaluation of injury and inflammatory lesions of left lung: Fibrosis lesion: scale not given here
Method: 40 male SD rats were randomized into Model group (Group 1, n=8), positive drug group BIBF1120 60 mg/kg/d group (Group 2, n=8), Compound A 5 mg/kg/d group (Group 3, n=8), compound A 10 mg/kg/d group (Group 4, n=8) and Compound A 20 mg/kg/d (Group 5, n=8). On the modeling day, rats were anesthetized and exposed to trachea. Bleomycin was injected into trachea of each group (dosage: 3 mg/kg, volume: 1.0 ml/kg). Oral administration was performed 2 hours after modeling, once a day. On Day 15, all the animals were killed, the left lung was taken, the weight and volume of the left lung were measured, then fixed by formalin, the bronchioles were stained with HE, Masson trichrome. The bronchioles, final bronchiole and small pulmonary artery injury and inflammation invasion were evaluated by semi-quantitative score, and pulmonary fibrosis was evaluated by Ashcraft semi-quantitative score.

[4] = tested on: bleomycin-induced lung injury in a mouse model; details: Moshai et al., 2014; cited from earlier work
[5] = tested on: foodborne non-alcoholic fatty hepatitis (NASH) model in mice; details: Hirsova et al., Plos One 2013; cited from earlier work
[6] = 100 mpk oral D8 to D22, mean ± sem, n = 6
[7] = 100 mpk oral D8 to D22 after modeling, mean ± sem
[8] = 60 mg/kg/d oral from modeling day, D15, HE score, mean ± sem, n = 8
[9] = 60 mg/kg/d oral from modeling day, D15, mean ± sem, n = 8
[10] = 50 mpk oral D8 to D22, mean ± sem, n = 8
[11] = 50 mpk oral D8 to D22 after modeling, mean ± sem

## COC(=O)c1ccc2c(c1)NC(=O)/C2=C(\Nc1ccc(N(C)C(=O)CN2CCN(C)CC2)cc1)c1ccccc1 [BIBF1120, Nintedanib ethylsulfonate, reference compound]
[1]; 50 mpk oral D5 to D25
  Inflammatory infiltration area: 4.33 ± 1.39 mm^2
  Total lung tissue area: 87.02 ± 4.05 mm^2
[1]; 50 mpk oral D5 to D25, ###p < 0.001 vs. BLM model group
  Percentage of inflammatory area (%): 4.67 ± 1.32^### %
[1]; BIBF1120 50 mpk oral D5 to D25, lung tissue immunohistochemical staining
  Percentage of positive α-SMA (%): 0.96 ± 0.20%
[2]; [6]
  Expression of Type I collagen (%): 18.99 ± 1.19%
  Expression of α-SMA protein (%): 7.36 ± 0.55%
[2]; [7]
  Evaluation of injury and inflammatory lesions of left lung: Fibrosis lesion: 7.00 ± 0.36
  Evaluation of injury and inflammatory lesions of left lung: Fibrotic lesion edge: 5.31 ± 0.28
  Fibrosis area (left pulmonary): 73.81 ± 1.14
  Fibrosis Score 1-3 (%): 88.33 ± 4.01%
  Fibrosis Score 4-8 (%): 11.67 ± 4.01%
  Fibrosis score (Ashcraft): 2.55 ± 0.18
  Volume of left lung: 1.23 ± 0.09 cm^3
  Weight of left lung: 1.31 ± 0.09 g
[3]; [8]
  Evaluation of injury and inflammatory lesions of left lung: Fibrosis lesion: 7.88 ± 0.48
  Evaluation of injury and inflammatory lesions of left lung: Fibrotic lesion edge: 5.50 ± 0.25
[3]; 60 mg/kg/d oral from modeling day, D15, Masson trichrome, mean ± sem, n = 8
  Fibrosis area (left pulmonary fibrosis): 77.85 ± 10.90
[3]; [9]
  Fibrosis Score 1-3 (%): 75.00 ± 23.90%
  Fibrosis Score 4-8 (%): 25.00 ± 23.90%
  Fibrosis score (Ashcraft): 3.15 ± 0.65
  Volume of left lung: 1.24 ± 0.17 cm^3
  Weight of left lung: 1.18 ± 0.14 g
[3]; BIBF1120 60 mg/kg/d, compound A 5, 10, 20 mg/kg/d
  average score of fibrosis in the entire fibrosis lesion (ashcraft): about 3 points

## CN(C)c1ccccc1CN1CCCN(Cc2ccccc2N(C)C)C1c1ccncc1 [GANT61]
[4]
  efficacy on pulmonary fibrosis: good therapeutic effect

## CS(=O)(=O)c1ccc(C(=O)Nc2ccc(Cl)c(-c3ccccn3)c2)c(Cl)c1 [GDC0449, vismodegib, reference compound]
[5]
  effect on liver injury, hepatic inflammation and fibrosis: attenuating hepatic inflammation and fibrosis
[2]; 14 consecutive days, BIBF1120 100, Compound A 5, 15, 30, GDC0449 50 mg/kg/d, p<0.001
  damage and inflammatory response of terminal bronchioles within fibrosis lesions and pulmonary small artery compared with model group: significantly reduced
[2]; [10]
  Expression of Type I collagen (%): 19.06 ± 0.70%
  Expression of α-SMA protein (%): 7.74 ± 0.59%
[2]; [11]
  Evaluation of injury and inflammatory lesions of left lung: Fibrosis lesion: 6.38 ± 0.17
  Evaluation of injury and inflammatory lesions of left lung: Fibrotic lesion edge: 4.80 ± 0.22
  Fibrosis area (left pulmonary): 67.96 ± 3.70
  Fibrosis Score 1-3 (%): 95.00 ± 2.67%
  Fibrosis Score 4-8 (%): 5.00 ± 2.67%
  Fibrosis score (Ashcraft): 2.16 ± 0.11
  Weight of left lung: 1.29 ± 0.09 g
[2]; BIBF1120 100, Compound A 5, 15, 30, GDC0449 50 mg/kg/d, p<0.01
  degree of pulmonary fibrosis (Ashcraft score) compared with model group: significantly better
[2]; BIBF1120 100 mpk, Compound A 5 mpk, GDC0449 50 mpk
  amount of Type I collagen deposition in the fibrotic lesions compared with model group: no significant difference
[2]; BIBF1120 100 mpk, GDC0449 50 mpk
  positive rate of α-SMA in fibrosis lesions per unit area compared with model group: no significant difference
[2]; compound A 5, 15 and 30 mg/kg, GDC0449 50 mg/kg/d, 14 consecutive days
  treatment effect on fibrosis compared with BIBF1120 100 mg/kg/d: the same as that of BIBF1120
[4]
  efficacy on pulmonary fibrosis: no efficacy
